Test results reported in patent publication US11180504B2 (ORCHID PHARMA LTD., priority 2016, dated 2021).
Converted amounts (≈) assume the structure as drawn. Read-outs that look alike come from different tables or passages of the source.

What was measured:
[1] = system: methicillin-sensitive Staphylococcus aureus; experiment: MIC by broth micro-dilution (CLSI), methicillin-sensitive S. aureus; format: cell-based; conditions: MSSA S. aureus ATCC29213
[2] = system: carbapenem sensitive Escherichia coli; experiment: MIC by broth micro-dilution (CLSI), carbapenem sensitive E. coli; format: cell-based
[3] = system: extended spectrum β lactamase (ESBL) SHV18 producing Klebsiella pneumoniae; experiment: MIC by broth micro-dilution (CLSI), ESBL SHV18 producing K. pneumoniae; format: cell-based; conditions: ESBL +ve (SHV-18) K. pneumoniae ATCC700603
[4] = system: carbapenemase producing K. pneumoniae; experiment: MIC by broth micro-dilution (CLSI), carbapenemase producing K. pneumoniae; format: cell-based, Klebsiella pneumoniae
[5] = system: carbapenem sensitive Pseudomonas aeruginosa; experiment: MIC by broth micro-dilution (CLSI), carbapenem sensitive P. aeruginosa; format: cell-based
[6] = Staphylococcus aureus, ATCC 29213 / MSSA, read-out: MIC
[7] = Escherichia coli, ATCC25922, ESBL −ve E. coli ATCC25922, read-out: MIC
[8] = Klebsiella pneumoniae, ATCC700603, 22 h, read-out: MIC
[9] = Klebsiella pneumoniae, ATCCBAA1705, KPC-2 K. pneumoniae ATCC BAA-1705, read-out: MIC
[10] = Pseudomonas aeruginosa, ATCC27853, Meropenem susceptible P. aeruginosa ATCC27853, read-out: MIC

| MIC [1, 6] [µg/mL] | MIC [2, 7] [µg/mL] | MIC [3, 8] [µg/mL] | MIC [4, 9] [µg/mL] | MIC [5, 10] [µg/mL] | MIC [1] [µg/mL] | MIC ([2]; ESBL −ve E. coli ATCC25922) [µg/mL] | MIC [3] [µg/mL] | MIC ([4]; KPC-2 K. pneumoniae ATCC BAA-1705) [µg/mL] | MIC ([5]; Meropenem susceptible P. aeruginosa ATCC27853) [µg/mL] | SMILES |
| --- | --- | --- | --- | --- | --- | --- | --- | --- | --- | --- |
| 2 (≈ 3.96 µM) | 0.5 (≈ 0.991 µM) | 2 (≈ 3.96 µM) | 2 (≈ 3.96 µM) | 64 (≈ 127 µM) |  |  |  |  |  | C[C@@H](NC(=O)C(F)F)[C@H]1C(=O)N2C(C(=O)O)=C(S[C@@H]3CN[C@H](C(=O)N4CC[C@@H](F)C4)C3)[C@H](C)[C@H]12 [Example 209] |
|  |  |  |  |  | 2 (≈ 3.96 µM) | 1 (≈ 1.98 µM) | 4 (≈ 7.93 µM) | 4 (≈ 7.93 µM) | 64 (≈ 127 µM) | C[C@@H](NC(=O)C(F)F)[C@H]1C(=O)N2C(C(=O)O)=C(S[C@@H]3CN[C@H](C(=O)N4CC[C@@H](F)C4)C3)[C@H](C)[C@H]12 [Example 210] |
| 32 (≈ 64.3 µM) | 4 (≈ 8.04 µM) | 32 (≈ 64.3 µM) | 16 (≈ 32.2 µM) | > 128 |  |  |  |  |  | CNCC(=O)N[C@H](C)[C@H]1C(=O)N2C(C(=O)O)=C(S[C@@H]3CN[C@H](C(=O)N4CC[C@H](F)C4)C3)[C@H](C)[C@H]12 [Example 214] |
| 8 (≈ 16.1 µM) | 2 (≈ 4.02 µM) | 32 (≈ 64.3 µM) | 8 (≈ 16.1 µM) | > 128 |  |  |  |  |  | CNCC(=O)N[C@H](C)[C@H]1C(=O)N2C(C(=O)O)=C(S[C@@H]3CN[C@H](C(=O)N4CC[C@@H](F)C4)C3)[C@H](C)[C@H]12 [Example 215] |
| 16 (≈ 31.2 µM) | 0.5 (≈ 0.975 µM) | 1 (≈ 1.95 µM) | 1 (≈ 1.95 µM) | 2 (≈ 3.9 µM) |  |  |  |  |  | CNCC(=O)N[C@H](C)[C@H]1C(=O)N2C(C(=O)O)=C(S[C@@H]3CN[C@H](C(=O)N4C[C@H](N)[C@@H](F)C4)C3)[C@H](C)[C@H]12 [Example 217] |
| 2 (≈ 3.88 µM) | 1 (≈ 1.94 µM) | 4 (≈ 7.76 µM) | 4 (≈ 7.76 µM) | 4 (≈ 7.76 µM) |  |  |  |  |  | C[C@@H](NC(=O)C(F)F)[C@H]1C(=O)N2C(C(=O)O)=C(S[C@@H]3CN[C@H](C(=O)N4CC[C@@H](CN)C4)C3)[C@H](C)[C@H]12 [Example 219] |
| 32 (≈ 62.9 µM) | 1 (≈ 1.97 µM) | 2 (≈ 3.93 µM) | 2 (≈ 3.93 µM) | 2 (≈ 3.93 µM) |  |  |  |  |  | CNCC(=O)N[C@H](C)[C@H]1C(=O)N2C(C(=O)O)=C(S[C@@H]3CN[C@H](C(=O)N4CC[C@@H](CN)C4)C3)[C@H](C)[C@H]12 [Example 220] |
| 128 (≈ 245 µM) | 16 (≈ 30.7 µM) | 64 (≈ 123 µM) | 64 (≈ 123 µM) | 32 (≈ 61.3 µM) |  |  |  |  |  | C[C@@H](NC(=O)CN(C)C=N)[C@H]1C(=O)N2C(C(=O)O)=C(S[C@@H]3CN[C@H](C(=O)N4CC[C@@H](N)C4)C3)[C@H](C)[C@H]12 [Example 229] |
| 32 (≈ 59.6 µM) | 1 (≈ 1.86 µM) | 8 (≈ 14.9 µM) | 4 (≈ 7.45 µM) | 8 (≈ 14.9 µM) |  |  |  |  |  | C[C@@H](NC(=O)CN(C)C(=N)N)[C@H]1C(=O)N2C(C(=O)O)=C(S[C@@H]3CN[C@H](C(=O)N4CC[C@@H](N)C4)C3)[C@H](C)[C@H]12 [Example 230] |

Second part, the molecule before the results:

| SMILES | MIC [1, 6] [µg/mL] | MIC [2, 7] [µg/mL] | MIC [3, 8] [µg/mL] | MIC [4, 9] [µg/mL] | MIC [5, 10] [µg/mL] | MIC [1] [µg/mL] | MIC ([2]; ESBL −ve E. coli ATCC25922) [µg/mL] | MIC [3] [µg/mL] | MIC ([4]; KPC-2 K. pneumoniae ATCC BAA-1705) [µg/mL] | MIC ([5]; Meropenem susceptible P. aeruginosa ATCC27853) [µg/mL] |
| --- | --- | --- | --- | --- | --- | --- | --- | --- | --- | --- |
| C[C@H]([C@H]1C(=O)N2C(C(=O)O)=C(SC3CN[C@H](C(=O)N4CCNCC4)C3)[C@H](C)[C@H]12)n1cc(CF)nn1 (stereo partly drawn) [Example 207] | 2 (≈ 3.94 µM) | 2 (≈ 3.94 µM) | 8 (≈ 15.8 µM) | 8 (≈ 15.8 µM) | > 128 |  |  |  |  |  |
| CNCc1cn([C@H](C)[C@H]2C(=O)N3C(C(=O)O)=C(SC4CN[C@H](C(=O)N(C)C)C4)[C@H](C)[C@H]23)nn1 (stereo partly drawn) [Example 208] | 64 (≈ 134 µM) | 4 (≈ 8.38 µM) | 8 (≈ 16.8 µM) | 8 (≈ 16.8 µM) | > 128 |  |  |  |  |  |
| C[C@@H](NC(=O)C(F)F)[C@H]1C(=O)N2C(C(=O)O)=C(S[C@@H]3CN[C@H](C(=O)N4C[C@H](N)[C@@H](F)C4)C3)[C@H](C)[C@H]12 [Example 211] | 2 (≈ 3.85 µM) | 1 (≈ 1.92 µM) | 4 (≈ 7.7 µM) | 4 (≈ 7.7 µM) | 16 (≈ 30.8 µM) |  |  |  |  |  |
| C[C@@H](NC(=O)C(F)F)[C@H]1C(=O)N2C(C(=O)O)=C(S[C@@H]3CN[C@H](C(=O)N4C[C@@H](N)C[C@H]4CNS(N)(=O)=O)C3)[C@H](C)[C@H]12 [Example 212] | 1 (≈ 1.64 µM) | 0.5 (≈ 0.82 µM) | 2 (≈ 3.28 µM) | 4 (≈ 6.56 µM) | 8 (≈ 13.1 µM) |  |  |  |  |  |
| C[C@@H](NC(=O)C(F)F)[C@H]1C(=O)N2C(C(=O)O)=C(S[C@@H]3CN[C@H](C(=O)N4C[C@@H](O)[C@@H](N)C4)C3)[C@H](C)[C@H]12 [Example 213] | 1 (≈ 1.93 µM) | 0.5 (≈ 0.966 µM) | 2 (≈ 3.86 µM) | 4 (≈ 7.73 µM) | 8 (≈ 15.5 µM) |  |  |  |  |  |
| CNCC(=O)N[C@H](C)[C@H]1C(=O)N2C(C(=O)O)=C(S[C@@H]3CN[C@H](C(=O)N4C[C@@H](N)C[C@H]4CNS(N)(=O)=O)C3)[C@H](C)[C@H]12 [Example 216] | 32 (≈ 53.1 µM) | 1 (≈ 1.66 µM) | 16 (≈ 26.5 µM) | 4 (≈ 6.64 µM) | 4 (≈ 6.64 µM) |  |  |  |  |  |
| CNCC(=O)N[C@H](C)[C@H]1C(=O)N2C(C(=O)O)=C(S[C@@H]3CN[C@H](C(=O)N4C[C@@H](O)[C@@H](N)C4)C3)[C@H](C)[C@H]12 [Example 218] | 16 (≈ 31.3 µM) | 1 (≈ 1.96 µM) | 2 (≈ 3.92 µM) | 2 (≈ 3.92 µM) | 2 (≈ 3.92 µM) |  |  |  |  |  |
| CNCC(=O)N[C@H](C)[C@H]1C(=O)N2C(C(=O)O)=C(S[C@@H]3CN[C@H](C(=O)N4CCN(CCN)CC4)C3)[C@H](C)[C@H]12 [Example 221] | 32 (≈ 59.5 µM) | 2 (≈ 3.72 µM) | 2 (≈ 3.72 µM) | 2 (≈ 3.72 µM) | 4 (≈ 7.44 µM) |  |  |  |  |  |
| CNCC(=O)N[C@H](C)[C@H]1C(=O)N2C(C(=O)O)=C(S[C@@H]3CN[C@H](C(=O)N4CC[N+](C)(CCN)CC4)C3)[C@H](C)[C@H]12 [Example 222] | 64 | 2 | 8 | 4 | 8 |  |  |  |  |  |
| C[C@@H](NC(=O)[C@@H]1CCCN1)[C@H]1C(=O)N2C(C(=O)O)=C(S[C@@H]3CN[C@H](CNS(N)(=O)=O)C3)[C@H](C)[C@H]12 [Example 225] | 16 (≈ 31 µM) | 1 (≈ 1.94 µM) | 32 (≈ 61.9 µM) | 2 (≈ 3.87 µM) | 64 (≈ 124 µM) |  |  |  |  |  |
| C[C@@H](NC(=O)[C@H]1CCCN1)[C@H]1C(=O)N2C(C(=O)O)=C(S[C@@H]3CN[C@H](CNS(N)(=O)=O)C3)[C@H](C)[C@H]12 [Example 226] | 32 (≈ 61.9 µM) | 1 (≈ 1.94 µM) | 32 (≈ 61.9 µM) | 8 (≈ 15.5 µM) | 64 (≈ 124 µM) |  |  |  |  |  |
| C[C@@H](NC(=O)[C@H]1CCCN1)[C@H]1C(=O)N2C(C(=O)O)=C(S[C@@H]3CN[C@H](C(=O)N(C)C)C3)[C@H](C)[C@H]12 [Example 227] | 64 (≈ 133 µM) | 2 (≈ 4.17 µM) | 8 (≈ 16.7 µM) | 4 (≈ 8.34 µM) | 32 (≈ 66.7 µM) |  |  |  |  |  |
| C[C@@H](NC(=O)[C@@H]1CCCN1)[C@H]1C(=O)N2C(C(=O)O)=C(S[C@@H]3CN[C@H](C(=O)N(C)C)C3)[C@H](C)[C@H]12 [Example 228] | 64 (≈ 133 µM) | 1 (≈ 2.09 µM) | 4 (≈ 8.34 µM) | 8 (≈ 16.7 µM) | 64 (≈ 133 µM) |  |  |  |  |  |
| C[C@@H](NC(=O)CN(C)C(=N)N)[C@H]1C(=O)N2C(C(=O)O)=C(S[C@@H]3CN[C@H](C(=O)N(C)C)C3)[C@H](C)[C@H]12 [Example 231] | 32 (≈ 64.6 µM) | 1 (≈ 2.02 µM) | 4 (≈ 8.07 µM) | 2 (≈ 4.04 µM) | 16 (≈ 32.3 µM) |  |  |  |  |  |
| COCc1cn([C@H](C)[C@H]2C(=O)N3C(C(=O)O)=C(S[C@@H]4CN[C@H](C(=O)N5CC[C@@H](N)C5)C4)[C@H](C)[C@H]23)nn1 [Example 232] | 2 (≈ 3.85 µM) | 2 (≈ 3.85 µM) | 8 (≈ 15.4 µM) | 8 (≈ 15.4 µM) | > 128 |  |  |  |  |  |
